We go through 22 molecules from PubChem BioAssay (NCI).

Test in all cases: NCI tumour cell line growth inhibition, 48 h
For test [1], the system named is PC-3 prostate.
For test [2], the system named is HS 578T breast.
In test [3] the test system is EKVX NSCLC.
In test [4] the test system is CCRF-CEM leukemia.
In test [5] the test system is SF-268 CNS.
For test [6], the system named is MDA-MB-231 breast.
Test [7] concerns OVCAR-3 ovarian.
For test [8], the system named is MCF7 breast.

SMILES strings stand for the structures. “And” between values parts separate entries of the source, which are not always exact repeats. Equal values may be shown once.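 Dose response: 5 concentrations. Exposure: 48 h. Format: 96-well plates. Endpoint: linear interpolation; highest concentration if not reached. GI50: concentration for 50% inhibition of growth. At the TGI there is no net growth.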 Bounds are passed on as bounds.

`C#CCOc1cccc(-c2ncnc3cc(NC(=O)CCl)ccc23)c1`: the GI50 in test [1] is 0.813 µM; in test [2], 1.92 µM; in test [3], 2.31 µM; in test [4] it was 0.0249 µM; in test [5], 0.669 µM; in test [6] it was 0.481 µM. Further, the GI50 was 0.617 µM in test [7] and 0.0764 µM in test [8]. In addition, the TGI in test [1] was determined as 4.84 µM; in test [2] it was 14.5 µM; in test [3], 7.64 µM; in test [5], 2.94 µM; in test [6], 4.57 µM; in test [7], 2.07 µM. Also, the TGI in test [8] worked out at 1.75 µM.

As to `Nc1ccccc1C(=O)CC1OC(=O)c2ccccc21` (stereo not given), the TGI in test [1], in test [2], in test [3], in test [5], in test [6] and in test [7] was more than 100 µM throughout. This molecule displayed a TGI in test [8] of more than 100 µM.

For `COc1ccc2c(C)cc(N/N=C/c3ccc(OC)c4ccccc34)nc2c1`, the TGI in test [1] was found to be 34.1 µM; in test [2], 32.8 µM; in test [3], 35.1 µM; in test [4], 7.47 µM; in test [5] it was 32.6 µM; in test [6], 17.4 µM. Besides, the TGI in test [7] was found to be 9.02 µM; in test [8], 44.6 µM.

Consider `Cc1ccc(-c2csc(/N=C3\C(=O)Nc4ccccc43)n2)cc1`, for which the GI50 is 1.08 µM in test [1]; 1.97 µM in test [2]; 1.52 µM in test [3]; 1.78 µM in test [4]; 1.52 µM in test [5]; 1.52 µM in test [6]. For the same molecule, the GI50 is 1.64 µM in test [7] and 1.01 µM in test [8]. For the same molecule, the TGI came to 2.82 µM in test [1]; 6.66 µM in test [2]; 5.86 µM in test [3]; 5.4 µM in test [4]; 3.5 µM in test [5]; 3.48 µM in test [6]. Also, the TGI in test [7] was 4.89 µM; in test [8] it was 3.11 µM.

Regarding `COc1cc(NC(N)=NCCC(C)(C)Oc2ccc(C(F)(F)F)cc2)ncc1C#N`, the GI50 in test [1] was 1.42 µM; in test [3] it was 1.45 µM; in test [5], 1.72 µM; in test [6], 1.75 µM; in test [7], 1.68 µM; in test [8], 1.61 µM. The TGI in test [1] was determined as 2.82 µM; in test [3], 2.85 µM; in test [5], 3.31 µM; in test [6], 3.21 µM; in test [7] it was 3.17 µM; in test [8], 3.18 µM.

With `Clc1nc(Cl)c2ncn(Cc3cccc(Cn4cnc5c(Cl)nc(Cl)nc54)c3)c2n1`, the GI50 in test [1] is 3.99 µM; in test [2] it was 2.69 µM; in test [3] it was 3.09 µM; in test [4], 2.25 µM; in test [5], 13 µM; in test [6], 2.66 µM. The figures for the GI50 in test [7] and in test [8] were 2.38 µM and 3.66 µM, respectively. Also, the TGI in test [1] amounted to 13.6 µM; in test [2] it was 7.29 µM; in test [3], 11 µM; in test [4] it was 5.32 µM; in test [5], 31.5 µM; in test [6], 7 µM. Besides, the values for the TGI in test [7] and in test [8] were 7.22 µM and 37.4 µM, respectively.

Turning to `FC(F)(F)c1nc2nc(Cl)c(Cl)nc2n1CCCN1CCOCC1`, the TGI was more than 100 µM in test [1]; more than 100 µM in test [2]; 50.5 µM in test [3]; more than 100 µM in test [4]; more than 100 µM in test [5]; more than 100 µM in test [6]. The TGI in test [7] and in test [8] was more than 100 µM each time.

For the molecule `Cc1nc(SCC(=O)Nc2nc(-c3ccc(Cl)cc3)cs2)n(Nc2ccccc2)c1C`, the GI50 is 2.34 µM in test [1]; 3.42 µM in test [2]; 1.84 µM in test [3]; 5.49 µM in test [4]; 4.8 µM in test [5]; 3.01 µM in test [6]. Besides, the values for the GI50 in test [7] and in test [8] were 3 µM and 2.94 µM, respectively. Moreover, the TGI in test [1] is 11 µM; in test [2], 21.6 µM; in test [3] it was 12.2 µM; in test [4] it was more than 100 µM; in test [5], 20.1 µM; in test [6], 15.2 µM. For the same molecule, the TGI in test [7] was 12.1 µM; in test [8], 11.4 µM.

With `CC(=O)OCC1OC(n2c(-c3ccc(Cl)cc3)ccc(C#N)c2=S)C(OC(C)=O)C(OC(C)=O)C1OC(C)=O` (stereo not given), the TGI in test [1] is more than 100 µM; in test [2], 67.3 µM and > 100 µM; in test [3], > 82.9 µM and 80.1 µM; in test [4] it was more than 100 µM; in test [5], more than 100 µM; in test [6], 47.1 µM and > 100 µM. Besides, the TGI in test [7] and in test [8] was more than 100 µM in each case. For the same molecule, the GI50 was 5.34 µM and 23.8 µM in test [2]; 5.5 µM and 34.9 µM in test [5]; 10.2 µM and 42.9 µM in test [6]; 98.7 µM and 48.1 µM in test [7].

With `Nc1ccc(C2=NN(c3ccccc3)C(c3ccc(Cl)cc3)C2)cc1` (stereo not given), the GI50 is 5.7 µM in test [2]; 2.3 µM in test [4]; 4.22 µM in test [5]; 2.38 µM in test [6]; 2.59 µM in test [7]; 1.32 µM in test [8]. The TGI in test [2] came to 50.5 µM; in test [4] it was 6.17 µM; in test [5], 19.8 µM; in test [6] it was 6.98 µM; in test [7], 6.88 µM; in test [8], 3.82 µM.

With `CC(C)(C)C(=O)c1c(C(F)(F)F)n([O-])c2ccccc2[n+]1=O`, the GI50 in test [1] is 0.817 µM; in test [2], 0.185 µM; in test [3], 0.757 µM; in test [4] it was 0.577 µM; in test [5], 0.549 µM; in test [6], 0.56 µM. Besides, the figures for the GI50 in test [7] and in test [8] were 0.174 µM and 0.421 µM, respectively. Besides, the TGI turned out to be 2.38 µM in test [1]; 0.728 µM in test [2]; 2.3 µM in test [3]; 2.34 µM in test [4]; 1.75 µM in test [5]; 2.3 µM in test [6]. The TGI in test [7] is 0.698 µM; in test [8], 2.03 µM.

For `Cc1ccc(S(=O)(=O)NC(=O)C2C(=O)CC3(CCCCC3)CC2=O)cc1`, the TGI in test [1] was 81.3 µM; in test [2] it was more than 100 µM; in test [3], 61.9 µM; in test [4] it was 69.8 µM; in test [5] it was more than 100 µM; in test [6] it was more than 100 µM. Moreover, the TGI is 92.2 µM in test [7] and 55.7 µM in test [8].

With `C=C1C(=O)O[C@H]2C[C@@H]1CC/C(C)=C/CC/C(C)=C/CC[C@H]2C`, the GI50 in test [1] was 8.54 µM; in test [2] it was 27.3 µM; in test [3], 19.7 µM; in test [4], 18.8 µM; in test [5], 19.3 µM; in test [6] it was 18.9 µM. Moreover, the GI50 in test [7] was 3.94 µM; in test [8] it was 14.7 µM. Moreover, the TGI in test [1] is 20.9 µM; in test [2], more than 78 µM; in test [3], 42.8 µM; in test [4] it was 48.5 µM; in test [5], 46.1 µM; in test [6], 38.9 µM. The TGI in test [7] is 19 µM; in test [8], 56.7 µM.

For `CNC(=O)c1ccc(N2CCN(Cc3ccc4nc(C)c(=O)[nH]c4c3F)CC2)c(F)n1`, the GI50 in test [1] was more than 100 µM; in test [2], 25.3 µM; in test [3], 81.2 µM; in test [4] it was more than 100 µM; in test [5], 43.3 µM; in test [6], 39.5 µM. Moreover, the GI50 in test [7] is more than 100 µM; in test [8], 65.9 µM. The TGI in test [1], in test [2], in test [3], in test [4], in test [5] and in test [6] was more than 100 µM throughout. Also, the TGI in test [7] and in test [8] was more than 100 µM throughout.

As to `CC(C)=CCc1c(OC(=O)c2c(C)cc(O)cc2O)cc(CO)c(CO)c1O`, the TGI was 36.8 µM in test [1]; 54.8 µM in test [2]; more than 100 µM in test [3]; 85 µM in test [5]; 48.3 µM in test [6]; 46.5 µM in test [8].

As to `CCOc1ccc2nc(SCc3nc4n(n3)S(=O)(=O)c3ccccc3N4C)sc2c1`, the GI50 was 45 µM in test [2]; more than 100 µM in test [3]; 64.2 µM in test [4]; 57.6 µM in test [5]; 73.1 µM in test [6]; more than 100 µM in test [7]. In test [8], the GI50 is more than 100 µM. In addition, the TGI in test [2], in test [3], in test [4], in test [5], in test [6] and in test [7] was more than 100 µM in each case. In addition, the TGI in test [8] was more than 100 µM.

Take `CCOC(=O)N1CCN(c2nc(Nc3cc(C)[nH]n3)c3ccccc3n2)CC1`: the GI50 in test [2] is 1.16 µM; in test [4], 10.1 µM; in test [5] it was 3.54 µM; in test [6], 4.97 µM; in test [7], 7.69 µM; in test [8], 4.61 µM. In addition, the TGI in test [2] is 5.42 µM; in test [4] it was 56.2 µM; in test [5], 39 µM; in test [6], 81.6 µM; in test [7], 37.3 µM; in test [8], more than 100 µM.

As for `Cc1sc2nc(-c3ccncc3)c(/C=N/N=C(N)N)n2c1C`, the GI50 is 58.4 µM in test [1]; 75.9 µM in test [3]; 63 µM in test [4]; 25.7 µM in test [5]; 25.3 µM in test [6]; 26 µM in test [7]. Further, the TGI in test [1] is more than 100 µM; in test [3], more than 100 µM; in test [4], more than 100 µM; in test [5], 90.1 µM; in test [6], 61.5 µM; in test [7], 89.7 µM.

For `C=C(c1ccc2nc(NC(=O)OC)[nH]c2c1)c1cccs1`, the TGI in test [1], in test [2], in test [3], in test [5], in test [6] and in test [8] was more than 100 µM throughout.

With `O=c1c(Oc2ccc(F)cc2F)cc2cnc(NC3CCOCC3)nc2n1CCCO`, the GI50 in test [1], in test [2], in test [4], in test [5], in test [6] and in test [7] was more than 25 µM throughout. In addition, in test [8], the GI50 was more than 25 µM. The TGI in test [1], in test [2], in test [4], in test [5], in test [6] and in test [7] was more than 25 µM each time. This molecule also came in with a TGI in test [8] of more than 25 µM.

For the molecule `OCc1ccc(-c2ccc(-c3ccc(CO)o3)[se]2)o1`, the GI50 in test [1] is 69.1 µM; in test [2], more than 79 µM; in test [4] it was 35.5 µM; in test [5] it was more than 100 µM; in test [6], more than 83.7 µM; in test [7] it was 31.3 µM. Also, the GI50 in test [8] was 5.53 µM. Further, the TGI in test [1], in test [2], in test [4], in test [5], in test [6] and in test [7] was more than 100 µM each time. In test [8], the TGI is more than 100 µM.

With `Cc1nn(-c2nc3ccccc3[nH]2)c(N)c1-c1ccc(Cl)cc1`, the GI50 is 2.97 µM in test [1]; 9.24 µM in test [2]; 2.92 µM in test [4]; 5.65 µM in test [5]; 4.5 µM in test [6]; 7.66 µM in test [7]. In addition, in test [8], the GI50 is 4.31 µM. In addition, the TGI in test [1], in test [2], in test [4], in test [5], in test [6] and in test [7] was more than 100 µM throughout. This molecule showed a TGI in test [8] of more than 100 µM.
